Reference: patent US8247211B2, “Glycopeptide antibiotics” (American Cyanamid Company, priority 2001, dated 2012)
Values after ≈ are worked out from the molar mass of the structure shown.

Key:
Assay in all cases: In vitro antibacterial evaluation: minimum inhibitory concentration (MIC), broth dilution method
Type in all cases: cell-based
Enterococcus sp. = details: 18 hours at 35° C.
Summary of the method: (§1)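 Inoculum: 5×10^5 CFU/mL. Range: 64-0.06 μg/mL. Medium: Muller-Hinton II […]; NCCLS M7-A2 broth dilution. Endpoint: lowest concentration inhibiting growth. Strains include methicillin-, penicillin- and/or vancomycin-resistant clinical isolates.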

Escherichia coli = Escherichia coli (GC 4560); 18 hours at 35° C.
Summary of the method: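 Using Muller-Hinton II […] and an inoculum of 5×10^5 CFU/mL, antibiotic dilutions from 64 down to 0.06 μg/mL were tested following NCCLS M7-A2. The MIC is the lowest concentration inhibiting growth, including in methicillin-, penicillin- or vancomycin-resistant clinical isolates.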

Staphylococcus sp. = tested on: Staphylococcus sp.
Summary of the method: as §1

Streptococcus sp. = details: 18 hours at 35° C.
Summary of the method: as §1

[1] = broth dilution, inoculum 5×10^5 CFU/mL

- MIC Enterococcus avium (GC 4558) (Enterococcus sp.; Enterococcus avium (GC 4558)): 4 µg/mL (≈ 2.67 µM)
- MIC Enterococcus faecalis (ATCC 29212) (Enterococcus sp.; Enterococcus faecalis (ATCC 29212)): 8 µg/mL (≈ 5.35 µM)
- MIC Enterococcus faecalis (GC 2242) (Enterococcus sp.; Enterococcus faecalis (GC 2242)): 8 µg/mL (≈ 5.35 µM)
- MIC Enterococcus faecalis (GC 2691) (Enterococcus sp.; Enterococcus faecalis (GC 2691)): 16 µg/mL (≈ 10.7 µM)
- MIC Enterococcus faecalis (GC 3059) (Enterococcus sp.; Enterococcus faecalis (GC 3059)): 16 µg/mL (≈ 10.7 µM)
- MIC Enterococcus faecalis (GC 4552) (Enterococcus sp.; Enterococcus faecalis (GC 4552)): 8 µg/mL (≈ 5.35 µM)
- MIC Enterococcus faecalis (GC 4553) (Enterococcus sp.; Enterococcus faecalis (GC 4553)): 4 µg/mL (≈ 2.67 µM)
- MIC Enterococcus faecalis (GC 4554) (Enterococcus sp.; Enterococcus faecalis (GC 4554)): 16 µg/mL (≈ 10.7 µM)
- MIC Enterococcus faecalis (GC 6189) (Enterococcus sp.; Enterococcus faecalis (GC 6189)): 16 µg/mL (≈ 10.7 µM)
- MIC Enterococcus faecium (GC 2243) (Enterococcus sp.; Enterococcus faecium (GC 2243)): 4 µg/mL (≈ 2.67 µM)
- MIC Enterococcus faecium (GC 4556) (Enterococcus sp.; Enterococcus faecium (GC 4556)): 8 µg/mL (≈ 5.35 µM)
- MIC Enterococcus faecium (GC 4557) (Enterococcus sp.; Enterococcus faecium (GC 4557)): 1 µg/mL (≈ 0.669 µM)
- MIC Enterococcus avium (GC 4558) (Enterococcus sp.; [1]): 4 µg/mL (≈ 2.67 µM)
- MIC Enterococcus faecalis (ATCC 29212) (Enterococcus sp.; [1]): 8 µg/mL (≈ 5.35 µM)
- MIC Enterococcus faecalis (GC 2242) (Enterococcus sp.; [1]): 8 µg/mL (≈ 5.35 µM)
- MIC Enterococcus faecalis (GC 2691) (Enterococcus sp.; [1]): 16 µg/mL (≈ 10.7 µM)
- MIC Enterococcus faecalis (GC 3059) (Enterococcus sp.; [1]): 16 µg/mL (≈ 10.7 µM)
- MIC Enterococcus faecalis (GC 4552) (Enterococcus sp.; [1]): 8 µg/mL (≈ 5.35 µM)
- MIC Enterococcus faecalis (GC 4553) (Enterococcus sp.; [1]): 4 µg/mL (≈ 2.67 µM)
- MIC Enterococcus faecalis (GC 4554) (Enterococcus sp.; [1]): 16 µg/mL (≈ 10.7 µM)
- MIC Enterococcus faecalis (GC 6189) (Enterococcus sp.; [1]): 16 µg/mL (≈ 10.7 µM)
- MIC Enterococcus faecium (GC 2243) (Enterococcus sp.; [1]): 4 µg/mL (≈ 2.67 µM)
- MIC Enterococcus faecium (GC 4556) (Enterococcus sp.; [1]): 8 µg/mL (≈ 5.35 µM)
- MIC Enterococcus faecium (GC 4557) (Enterococcus sp.; [1]): 1 µg/mL (≈ 0.669 µM)
- MIC Escherichia coli (GC 4560) (Escherichia coli): 4 µg/mL (≈ 2.67 µM)
- MIC Staphylococcus aureus (ATCC 29213) (Staphylococcus sp.; strain ATCC 29213): 4 µg/mL (≈ 2.67 µM)
- MIC Staphylococcus aureus (GC 1131) (Staphylococcus sp.; strain GC 1131): 8 µg/mL (≈ 5.35 µM)
- MIC Staphylococcus aureus (GC 3051) (Staphylococcus sp.; strain GC 3051): 4 µg/mL (≈ 2.67 µM)
- MIC Staphylococcus aureus (GC 3053) (Staphylococcus sp.; strain GC 3053): 8 µg/mL (≈ 5.35 µM)
- MIC Staphylococcus aureus (GC 4541) (Staphylococcus sp.; strain GC 4541): 4 µg/mL (≈ 2.67 µM)
- MIC Staphylococcus aureus (GC 4542) (Staphylococcus sp.; strain GC 4542): 8 µg/mL (≈ 5.35 µM)
- MIC Staphylococcus aureus-SMITH (GC 4543) (Staphylococcus sp.; strain GC 4543): 4 µg/mL (≈ 2.67 µM)
- MIC Staphylococcus aureus (GC 4544) (Staphylococcus sp.; strain GC 4544): 8 µg/mL (≈ 5.35 µM)
- MIC Staphylococcus aureus (GC 4545) (Staphylococcus sp.; strain GC 4545): 4 µg/mL (≈ 2.67 µM)
- MIC Coagulase Negative Staphylococcus (GC 4547) (Staphylococcus sp.; strain GC 4547): 4 µg/mL (≈ 2.67 µM)
- MIC Coagulase Negative Staphylococcus (GC 4548) (Staphylococcus sp.; strain GC 4548): 2 µg/mL (≈ 1.34 µM)
- MIC Coagulase Negative Staphylococcus (GC 4549) (Staphylococcus sp.; strain GC 4549): 2 µg/mL (≈ 1.34 µM)
- MIC Coagulase Negative Staphylococcus (GC 4551) (Staphylococcus sp.; strain GC 4551): 4 µg/mL (≈ 2.67 µM)
- MIC Streptococcus agalactiae (GC 4564) (Streptococcus sp.; Streptococcus agalactiae (GC 4564)): 0.5 µg/mL (≈ 0.334 µM)
- MIC Streptococcus pneumoniae (ATCC 6301) (Streptococcus sp.; Streptococcus pneumoniae (ATCC 6301)): 0.5 µg/mL (≈ 0.334 µM)
- MIC Streptococcus pneumoniae (GC 1894) (Streptococcus sp.; Streptococcus pneumoniae (GC 1894)): <0.12 µg/mL
- MIC Streptococcus pneumoniae (GC 4565) (Streptococcus sp.; Streptococcus pneumoniae (GC 4565)): 1 µg/mL (≈ 0.669 µM)
- MIC Streptococcus pyogenes (GC 4563) (Streptococcus sp.; Streptococcus pyogenes (GC 4563)): 0.5 µg/mL (≈ 0.334 µM)
- MIC Streptococcus agalactiae (GC 4564) (Streptococcus sp.; [1]): 0.5 µg/mL (≈ 0.334 µM)
- MIC Streptococcus pneumoniae (ATCC 6301) (Streptococcus sp.; [1]): 0.5 µg/mL (≈ 0.334 µM)
- MIC Streptococcus pneumoniae (GC 1894) (Streptococcus sp.; [1]): <0.12 µg/mL
- MIC Streptococcus pneumoniae (GC 4565) (Streptococcus sp.; [1]): 1 µg/mL (≈ 0.669 µM)
- MIC Streptococcus pyogenes (GC 4563) (Streptococcus sp.; [1]): 0.5 µg/mL (≈ 0.334 µM)
Compound: CC(C)=CCN1CC(C(O)C2NC(=O)C(C(O)C3CNC(=N)N3)NC(=O)C(Cc3ccc(OC4OC(CO)C(OC5OC6COC7(OC6C(O)C5O)C5CC6CC(C5)CC7C6)C(O)C4O)cc3)NC(=O)C(C(C)c3ccccc3)NC(=O)CNC(=O)C(CO)NC2=O)N(C2OC(CO)C(O)C(O)C2O)C1=N (stereo not drawn) [Example 225, Cyclo[glycyl-β-methylphenylalanyl-O-[4-O-[4,6-O-(2-adamantylidene)hexopyranosyl]hexopyranosyl]tyrosyl-3-(2-iminoimidazolidin-4-yl)seryl-3,3-hexopyranosyl-2-imino-1-(3-methylbut-2-en-1-iminoimidazolidin-4-yl]serylseryl]]
- MIC Staphylococcus haemolyticus (GC 4546) (Staphylococcus sp.; strain GC 4546): 4 µg/mL (≈ 2.67 µM)
